According to US9376376B2, “Substitute diphenylamine compounds use thereof as antitumor agents” (SINOCHEM CORPORATION, priority 2012, dated 2016):

How the values were obtained:
[1] = system: non-small cell lung cancer A549 cells; test: In vitro cell inhibition assay, CCK-8 method, A549; assay type: cell-based, human; conditions: 48 h incubation
Procedure: (§1) After the cell culture flasks gently shaking, culture fluid was discarded in clean bench. […] Cells were collected and transferred to centrifuge tube. For the non-adherent cells HL-60, CCRF-CEM and MOLT-4, cell flasks were picked up from incubator and then transferred to the centrifuge tubes directly. After cells were collected using centrifuge at 1000 rpm/min for 5 min, the fluid was discarded. Then cells were washed for one time by PBS, discard fluid. Then add some medium, count cells under inverted microscope using blood cell counting plate, according the counting number to making the density of adherent cell was 1×10^5 cells/mL, the non-adherent cell was 2×10^5 cells/mL (the volumes of HL-60, CCRF-CEM, MOLT-4 are smaller than non-adherent cells, these cells added to each well was much more higher). Add 50 μL aliquots to each well of 96-well plates (the density of adherent cells was 5000 cells/well, non-adherent cells was 10000 cells/well). Blank control, Negative control, blank control with compounds and positive control wells were grouped, and three replicate wells were used for each data point in the experiments. Then the cells were cultured in 5% incubator for overnight at 37° C., Then the different concentration compounds were added to each well. After incubation for 48 h, according to the manufacturer's instructions, CCK-8 reagent (10 μl) was added and incubation was continued for a further 2-4 h. The absorbance (A) of each well was read at 450 nm using a plate reader.

[2] = system: leukemia HL-60 cells; test: In vitro cell inhibition assay, CCK-8 method, HL-60; assay type: cell-based, human; conditions: HL-60 cells, CCK-8 method
Procedure: as §1

[3] = system: colon cancer COLO-205; test: In vitro cell inhibition assay, CCK-8 method, COLO-205; conditions: Homo sapiens, COLO 205, read-out: The half maximal inhibitory concentration (IC50)

| Structure (SMILES) | Proliferation inhibitory effect of the compounds on A549 cells (% of Control) ([1]; CCK-8, 0.01 μM) | Proliferation inhibitory effect of the compounds on A549 cells (% of Control) ([1]; CCK-8, 0.1 μM) | Proliferation inhibitory effect of the compounds on A549 cells (% of Control) ([1]; CCK-8, 1 μM) | Proliferation inhibitory effect of the compounds on A549 cells (% of Control) ([1]; CCK-8, 10 μM) | Proliferation inhibitory effect of the compounds on A549 cells (% of Control) ([1]; CCK-8, 100 μM) | Proliferation inhibitory effect of the compounds on HL-60 cells (% of Control) ([2]; concentration 0.01 μM) | Proliferation inhibitory effect of the compounds on HL-60 cells (% of Control) ([2]; concentration 0.1 μM) | Proliferation inhibitory effect of the compounds on HL-60 cells (% of Control) ([2]; concentration 1 μM) | Proliferation inhibitory effect of the compounds on HL-60 cells (% of Control) ([2]; concentration 10 μM) | Proliferation inhibitory effect of the compounds on HL-60 cells (% of Control) ([2]; concentration 100 μM) | other results |
| --- | --- | --- | --- | --- | --- | --- | --- | --- | --- | --- | --- |
| N#Cc1c(Cl)c(Cl)c(Nc2ccc(C(F)(F)F)cc2Cl)c(C#N)c1Cl [Compound 6-47] | 42.56 % of Control | 49.86 % of Control | 53.58 % of Control | 55.57 % of Control | 99.91 % of Control | 7.02 % of Control | 34.70 % of Control | 41.47 % of Control | 83.33 % of Control | 98.51 % of Control |  |
| N#Cc1c(Cl)c(Cl)c(Nc2ccc(C(F)(F)F)cc2)c(C#N)c1Cl [Compound 6-24] | 22.06 % of Control | 24.27 % of Control | 31.44 % of Control | 60.31 % of Control | 87.36 % of Control | 0.00 % of Control | 17.55 % of Control | 48.39 % of Control | 56.72 % of Control | 95.11 % of Control |  |
| N#Cc1c(Cl)c(Cl)c(Nc2c(Br)cc(OC(F)(F)F)cc2Br)c(C#N)c1Cl [Compound 6-111] | 23.15 % of Control | 29.42 % of Control | 53.14 % of Control | 80.03 % of Control | 99.83 % of Control | 13.70 % of Control | 41.52 % of Control | 79.31 % of Control | 95.16 % of Control | 99.28 % of Control |  |
| N#Cc1c(Cl)c(Cl)c(Nc2c(Cl)cc(Br)cc2Cl)c(C#N)c1Cl [Compound 6-201] | 14.31 % of Control | 19.63 % of Control | 26.90 % of Control | 60.23 % of Control | 83.86 % of Control | 40.59 % of Control | 48.61 % of Control | 75.70 % of Control | 86.76 % of Control | 98.14 % of Control |  |
| COC(=O)c1ccc(Nc2c(Cl)c(Cl)c(C#N)c(Cl)c2C#N)cc1 [Compound 6-25] | 15.66 % of Control | 18.59 % of Control | 17.11 % of Control | 55.87 % of Control | 81.32 % of Control | 11.52 % of Control | 42.54 % of Control | 84.06 % of Control | 92.02 % of Control | 84.30 % of Control |  |
| N#Cc1c(Cl)c(Cl)c(Nc2c(Cl)cc(C(F)(F)F)cc2Cl)c(C#N)c1Cl [Compound 6-95] | 39.65 % of Control | 56.27 % of Control | 78.63 % of Control | 97.88 % of Control | 98.69 % of Control | 0.00 % of Control | 43.28 % of Control | 94.76 % of Control | 94.99 % of Control | 96.40 % of Control |  |
| N#Cc1c(Cl)c(Cl)c(Nc2c(Br)cc(Br)cc2Br)c(C#N)c1Cl [Compound 6-112] |  |  |  |  |  |  |  |  |  |  | inhibition at 0.01 µM ([1]; Homo sapiens, A549, CCK-8, 0.01 μM, read-out: Proliferation inhibitory effect of the compounds on A549 cells (% of Control)): 46.5%; inhibition at 0.1 µM ([1]; Homo sapiens, A549, CCK-8, 0.1 μM, read-out: Proliferation inhibitory effect of the compounds on A549 cells (% of Control)): 47.2%; inhibition at 1 µM ([1]; Homo sapiens, A549, CCK-8, 1 μM, read-out: Proliferation inhibitory effect of the compounds on A549 cells (% of Control)): 76.9%; inhibition at 10 µM ([1]; Homo sapiens, A549, CCK-8, 10 μM, read-out: Proliferation inhibitory effect of the compounds on A549 cells (% of Control)): 89.3%; inhibition at 100 µM ([1]; Homo sapiens, A549, CCK-8, 100 μM, read-out: Proliferation inhibitory effect of the compounds on A549 cells (% of Control)): 99.3%; inhibition at 0.01 µM ([2]; Homo sapiens, concentration 0.01 μM, read-out: Proliferation inhibitory effect of the compounds on HL-60 cells (% of Control)): 48.3%; inhibition at 0.1 µM ([2]; Homo sapiens, concentration 0.1 μM, read-out: Proliferation inhibitory effect of the compounds on HL-60 cells (% of Control)): 59.5%; inhibition at 1 µM ([2]; Homo sapiens, concentration 1 μM, read-out: Proliferation inhibitory effect of the compounds on HL-60 cells (% of Control)): 91.5%; inhibition at 10 µM ([2]; Homo sapiens, concentration 10 μM, read-out: Proliferation inhibitory effect of the compounds on HL-60 cells (% of Control)): 97.6%; inhibition at 100 µM ([2]; Homo sapiens, concentration 100 μM, read-out: Proliferation inhibitory effect of the compounds on HL-60 cells (% of Control)): 96.5% |
| COC(=O)c1cc(Cl)c(Nc2c(Cl)c(Cl)c(C#N)c(Cl)c2C#N)c(Cl)c1 [Compound 6-100] | 43.98 % of Control | 50.53 % of Control | 52.15 % of Control | 57.45 % of Control | 89.94 % of Control | 14.24 % of Control | 26.90 % of Control | 39.47 % of Control | 49.85 % of Control | 97.42 % of Control |  |
| COc1cc2ncnc(Nc3ccc(F)c(Cl)c3)c2cc1OCCCN1CCOCC1 [Gefitinib] |  |  |  |  |  |  |  |  |  |  | IC50 [3]: 6.97 µM |
